pKi: −log10 of the molar value.
Target: T1, Protein-glutamine gamma-glutamyltransferase 2 (Homo sapiens, UniProt P21980)
T1 sequence (P21980 whole entry): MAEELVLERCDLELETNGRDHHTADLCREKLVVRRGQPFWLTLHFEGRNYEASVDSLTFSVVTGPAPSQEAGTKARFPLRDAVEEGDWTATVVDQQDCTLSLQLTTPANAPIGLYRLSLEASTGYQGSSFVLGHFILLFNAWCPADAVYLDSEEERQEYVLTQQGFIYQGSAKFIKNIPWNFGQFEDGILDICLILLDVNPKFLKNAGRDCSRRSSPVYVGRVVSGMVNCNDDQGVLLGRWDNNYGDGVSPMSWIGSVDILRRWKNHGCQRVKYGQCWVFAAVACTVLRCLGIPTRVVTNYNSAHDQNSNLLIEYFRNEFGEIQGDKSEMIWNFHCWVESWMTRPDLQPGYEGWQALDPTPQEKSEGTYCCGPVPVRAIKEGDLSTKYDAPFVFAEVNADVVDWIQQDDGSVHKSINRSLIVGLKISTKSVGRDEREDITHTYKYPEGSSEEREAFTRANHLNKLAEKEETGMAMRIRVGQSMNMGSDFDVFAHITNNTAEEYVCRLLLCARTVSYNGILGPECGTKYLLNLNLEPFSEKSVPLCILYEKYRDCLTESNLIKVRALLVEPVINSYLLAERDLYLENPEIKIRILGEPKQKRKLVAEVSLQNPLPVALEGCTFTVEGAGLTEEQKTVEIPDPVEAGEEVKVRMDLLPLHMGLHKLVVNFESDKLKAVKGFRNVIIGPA
Assay: TG Inhibition Assay
Conditions: pH 7.2
Text: Recombinant of human TG2 was expressed in E.coli and purified to >90% homogeneity.

Structure (SMILES) | pKi
O=C(N[C@@H](Cc1c[nH]c2ccc(O)cc12)C(=O)NCC1CC(Br)=NO1)OCc1ccccc1 (some centres undefined) [Dihydroisoxazole, 1f] | 3.51
O=C(N[C@@H](Cc1ccccc1)C(=O)NCC1CC(Br)=NO1)OCCc1ccccc1 (some centres undefined) [Dihydroisoxazole, 3d] | 4.21
O=C(N[C@@H](Cc1ccccc1)C(=O)NCC1CC(Br)=NO1)Oc1ccc2ccccc2c1 (some centres undefined) [Dihydroisoxazole, 3e] | 4.37
O=C(N[C@@H](Cc1ccccc1)C(=O)NCC1CC(Br)=NO1)OCC1=Cc2ccccc2S1(=O)=O (some centres undefined) [Dihydroisoxazole, 3f] | 4.06
